How the values were obtained:
androgen receptor = androgen receptor (Rattus norvegicus (Rat), UniProt P15207); assay: androgen receptor binding assay (fluorescence polarization, Invitrogen); conditions: AR-Fluormone complex, 4 h at room temperature
Experimental: The assay was performed as specified by the manufacturer (Invitrogen, Madison, Wis.). Briefly, 1 μl of 10 mM compound was added to 500 μl of AR screening buffer in a 1.5 ml eppendorf tube to make a 2×10^−5M stock. 10-fold serial dilutions of the test compounds were prepared ranging in concentration from 10^−5M to 10^−12M. Each dilution was added in triplicate to a black 384-microtiter plate. The test compounds will be diluted 2-fold in the final reaction. 2×AR-Fluormone™ complex was prepared with 2 nM Flourmone AL Green™ and 30 nM AR. 25 μl of 2×complex was aliquoted to each reaction well, such that the final reaction volume was 50 μl per well. Plate was sealed with a foil cover and incubated in the dark at room temperature for 4 h. Polarization values for each well were measured. The polarization values were plotted against the concentration of the test compound. […] As a control, a competition curve for R1881 (methyltrienolone) was performed for each assay.

[1] = system: immature, castrated rat (levator ani and bulba cavernous, LABC); assay: In vivo rat Herschberger assay, LABC weight; parameters: key: no = no activity observed at highest dose tested.; yes = increased LABC weight relative to castrated vehicle control; conditions: once daily oral gavage for 4 days
From the text: In Vivo Rat Model of Androgen and Anabolic Activity-Rat Herschberger Assay
The following is a typical procedure of the in vivo evaluation of the selective androgens of this invention. In particular, this assay looks primarily at the ability of the selective androgens of this invention to increase muscle size in an immature, castrated rat. In addition, androgenic effects are looked at primarily by weighing the prostate and seminal vesicles. Selective compounds will show a greater increase in the levator ani relative to the prostate and seminal vesicles when compared to testosterone treated, castrated animals or to intact animals that have not been treated. Immature Sprague Dawley male rats were obtained Charles River Laboratories (Stoneridge, N.Y.). All animals were maintained in a temperature and humidity controlled room with a 12 hr light: 12 hr dark cycle, with ad lib access to food (TD 291615, Teklad, Madison, Wis.) and water. Rats were anesthetized and orchidectomized (GDX) or sham surgery (SHAM) was performed. After a 7-day recovery period, the animals were randomized according to weight and assigned to treatment groups (n=5), SHAM, OVX+vehicle, OVX+Cpd treated. Testosterone propionate (TP 1 mg/kg in 5% DMSO/95% corn oil) was administered by once daily subcutaneous injections, while the compounds of the invention are dosed in vehicle (0.5% carboxymethylcellulose) was administered by once daily oral gavage. The rats were then dosed once daily for 4 days. All animals were euthanized via carbon dioxide inhalation 24 hs after the last dose. The prostate, seminal vesicle and levator ani and bulba cavernous (LABC) tissues were removed, weighed and recorded. An increase in mean LABC indicates anabolic activity for that particular compound with regard to oral dosing typically at a maximum tested dose of between 1 mg/kg and 30 mg/kg—see Table 1.

[2] = maximum tested dose between 1 mg/kg and 30 mg/kg, Table 1

Sequence of androgen receptor (P15207 651-902): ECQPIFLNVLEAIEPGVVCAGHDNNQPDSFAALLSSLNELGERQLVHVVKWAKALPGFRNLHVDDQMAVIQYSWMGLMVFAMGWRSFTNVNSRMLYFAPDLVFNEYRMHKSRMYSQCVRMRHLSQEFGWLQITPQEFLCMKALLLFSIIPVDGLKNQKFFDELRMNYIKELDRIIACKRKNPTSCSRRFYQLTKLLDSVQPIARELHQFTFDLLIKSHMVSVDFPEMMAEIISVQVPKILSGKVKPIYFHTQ

For `Cc1c(N2C(=O)OC[C@@H]2[C@H](O)C(F)(F)F)ccc(C#N)c1C(F)(F)F` [Example 13, 3-methyl-4-((R)-2-oxo-4-((S)-2,2,2-trifluoro-1-hydroxyethyl)oxazolidin-3-yl)-2-(trifluoromethyl)benzonitrile], the IC50 (androgen receptor; Table 1) was 13 nM and the “Oral activity in Herscheberger assay on LABC weight” value (shortened to “Oral activity”) [1, 2] was “yes”.
For `Cc1c(N2C(=O)O[C@@H](C)[C@@H]2[C@H](O)C(F)(F)F)ccc(C#N)c1Cl` [Example 17, 2-chloro-3-methyl-4-((4S,5S)-5-methyl-2-oxo-4-((S)-2,2,2-trifluoro-1-hydroxyethyl)oxazolidin-3-yl)benzonitrile], the IC50 (androgen receptor; Table 1) was 13 nM and the “Oral activity” value [1, 2] was “yes”.
`C[C@@H]1OC(=O)N(c2ccc(C#N)c(Cl)c2)[C@H]1[C@H](O)C(F)(F)F` [Example 21, 2-Chloro-4-((4S,5S)-5-methyl-2-oxo-4-((S)-2,2,2-trifluoro-1-hydroxyethyl)oxazolidin-3-yl)benzonitrile] was tested, and the IC50 (androgen receptor; Table 1) was 15 nM and the “Oral activity” value [1, 2] was “yes”.
`C[C@@H]1OC(=O)N(c2ccc(C#N)c(Cl)c2)[C@H]1[C@@H](O)C(F)(F)F` [Example 22, 2-Chloro-4-((4S,5S)-5-methyl-2-oxo-4-((R)-2,2,2-trifluoro-1-hydroxyethyl)oxazolidin-3-yl)benzonitrile] was tested, and the IC50 (androgen receptor; Table 1) was 210 nM and the “Oral activity” value [1, 2] was “yes”.
For `CN1C[C@H]([C@H](O)C(F)(F)F)N(c2ccc(C#N)c(C(F)(F)F)c2)C1=O` [Example 25, 4-((R)-5-((S)-2,2,2-trifluoro-1-hydroxyethyl)-3-methyl-2-oxoimidazolidin-1-yl)-2-(trifluoromethyl)benzonitrile], the IC50 (androgen receptor; Table 1) was 10 nM and the “Oral activity” value [1, 2] was “no”.
In the case of `CN1C[C@H]([C@@H](O)C(F)(F)F)N(c2ccc(C#N)c(C(F)(F)F)c2)C1=O` [Example 26, 4-((R)-5-((R)-2,2,2-trifluoro-1-hydroxyethyl)-3-methyl-2-oxoimidazolidin-1-yl)-2-(trifluoromethyl)benzonitrile], the IC50 (androgen receptor; Table 1) is reported as greater than 1000 nM and the “Oral activity” value [1, 2] is reported as “no”.
With `O=C1CC[C@H]([C@H](O)C(F)(F)F)N1c1ccc(Cl)c(Cl)c1` [Example 27, (R)-1-(3,4-dichlorophenyl)-5-((S)-2,2,2-trifluoro-1-hydroxyethyl)pyrrolidin-2-one] the IC50 (androgen receptor; Table 2) was 62 nM and the “Oral activity” value ([1]; Table 2) was “yes”.
For `Cc1c(N2C(=O)CC[C@@H]2[C@H](O)C(F)(F)F)ccc(C#N)c1Cl` [Example 29, 2-chloro-4-((R)-2-((S)-2,2,2-trifluoro-1-hydroxyethyl)-5-oxopyrrolidin-1-yl)-3-methylbenzonitrile], the IC50 (androgen receptor; Table 2) was 25 nM and the “Oral activity” value ([1]; Table 2) was “yes”.
With `Cc1c(N2C(=O)CC[C@@H]2[C@@H](O)C(F)(F)F)ccc(C#N)c1Cl` [Example 30, 2-chloro-4-((R)-2-((R)-2,2,2-trifluoro-1-hydroxyethyl)-5-oxopyrrolidin-1-yl)-3-methylbenzonitrile] the IC50 (androgen receptor; Table 2) was 491 nM and the “Oral activity” value ([1]; Table 2) was “no”.
For `N#Cc1ccc(N2C(=O)CC[C@@H]2C(O)C(F)(F)F)cc1Cl` (stereo partly drawn) [Example 31, 2-chloro-4-((R)-2-(2,2,2-trifluoro-1-hydroxyethyl)-5-oxopyrrolidin-1-yl)benzonitrile], the IC50 (androgen receptor; Table 2) was 46 nM and the “Oral activity” value ([1]; Table 2) was “yes”.
